Like-named read-outs stand apart in the source and are kept apart here.

One data set concerns the target ACC1 (Homo sapiens (Human), UniProt Q13085). The data set can be described thus: ACC1 enzyme activity assay (ADP-Glo). In kind it is biochemical. The settings on record: ACC1 enzyme 2 nM working solution, room temperature. On the procedure:
(§1) Compound preparation: the compounds of the present disclosure prepared in the above examples and the control compound were respectively formulated into 10 mM with DMSO for use.
(§2) Preparation of 1× reaction buffer (pH=7.4): HEPES stock solutions (1 M), MgCl2 (1 M), BRIJ-35 (10%), potassium citrate buffer (1 M), BSA (10 mg/mL) and DTT (500 mM) were formulated to enzyme reaction buffer containing HEPES (50 mM), MgCl2 (2 mM), BRIJ-35 (0.01%), potassium citrate buffer (2 mM), BSA (50 Gg/mL) and DTT (2 mM).
4.5 μL of 2.2×ACC1 enzyme (2 nM) working solution was added to a 384-well plate; and then 0.5 μL of different concentrations of compound were added. The mixture was incubated at room temperature for 15 min.
(§3) Negative control group: menstruum containing 5% DMSO; positive control group: menstruum containing 100 nM ND-630. The average values of each concentration and the positive and negative controls were calculated, and the standard deviation was calculated. […] The inhibition rate data was fitted by nonlinear regression equation to calculate IC50 of each compound. The nonlinear regression equation was Y=lowest value+(highest value−lowest value)/(1+10^((Log IC50−X)×HillSlope)), among which X is logarithm of the compound concentration and Y is inhibition percent (%).

For the next data set, the target named is ACC2 (Homo sapiens (Human), UniProt O00763). The data set can be described thus: ACC2 enzyme activity assay (ADP-Glo). In kind it is biochemical. The note with it: ACC2 enzyme 1.1 nM working solution, room temperature. On the procedure: as §1, §2
Sequence of ACC2 (O00763 whole entry): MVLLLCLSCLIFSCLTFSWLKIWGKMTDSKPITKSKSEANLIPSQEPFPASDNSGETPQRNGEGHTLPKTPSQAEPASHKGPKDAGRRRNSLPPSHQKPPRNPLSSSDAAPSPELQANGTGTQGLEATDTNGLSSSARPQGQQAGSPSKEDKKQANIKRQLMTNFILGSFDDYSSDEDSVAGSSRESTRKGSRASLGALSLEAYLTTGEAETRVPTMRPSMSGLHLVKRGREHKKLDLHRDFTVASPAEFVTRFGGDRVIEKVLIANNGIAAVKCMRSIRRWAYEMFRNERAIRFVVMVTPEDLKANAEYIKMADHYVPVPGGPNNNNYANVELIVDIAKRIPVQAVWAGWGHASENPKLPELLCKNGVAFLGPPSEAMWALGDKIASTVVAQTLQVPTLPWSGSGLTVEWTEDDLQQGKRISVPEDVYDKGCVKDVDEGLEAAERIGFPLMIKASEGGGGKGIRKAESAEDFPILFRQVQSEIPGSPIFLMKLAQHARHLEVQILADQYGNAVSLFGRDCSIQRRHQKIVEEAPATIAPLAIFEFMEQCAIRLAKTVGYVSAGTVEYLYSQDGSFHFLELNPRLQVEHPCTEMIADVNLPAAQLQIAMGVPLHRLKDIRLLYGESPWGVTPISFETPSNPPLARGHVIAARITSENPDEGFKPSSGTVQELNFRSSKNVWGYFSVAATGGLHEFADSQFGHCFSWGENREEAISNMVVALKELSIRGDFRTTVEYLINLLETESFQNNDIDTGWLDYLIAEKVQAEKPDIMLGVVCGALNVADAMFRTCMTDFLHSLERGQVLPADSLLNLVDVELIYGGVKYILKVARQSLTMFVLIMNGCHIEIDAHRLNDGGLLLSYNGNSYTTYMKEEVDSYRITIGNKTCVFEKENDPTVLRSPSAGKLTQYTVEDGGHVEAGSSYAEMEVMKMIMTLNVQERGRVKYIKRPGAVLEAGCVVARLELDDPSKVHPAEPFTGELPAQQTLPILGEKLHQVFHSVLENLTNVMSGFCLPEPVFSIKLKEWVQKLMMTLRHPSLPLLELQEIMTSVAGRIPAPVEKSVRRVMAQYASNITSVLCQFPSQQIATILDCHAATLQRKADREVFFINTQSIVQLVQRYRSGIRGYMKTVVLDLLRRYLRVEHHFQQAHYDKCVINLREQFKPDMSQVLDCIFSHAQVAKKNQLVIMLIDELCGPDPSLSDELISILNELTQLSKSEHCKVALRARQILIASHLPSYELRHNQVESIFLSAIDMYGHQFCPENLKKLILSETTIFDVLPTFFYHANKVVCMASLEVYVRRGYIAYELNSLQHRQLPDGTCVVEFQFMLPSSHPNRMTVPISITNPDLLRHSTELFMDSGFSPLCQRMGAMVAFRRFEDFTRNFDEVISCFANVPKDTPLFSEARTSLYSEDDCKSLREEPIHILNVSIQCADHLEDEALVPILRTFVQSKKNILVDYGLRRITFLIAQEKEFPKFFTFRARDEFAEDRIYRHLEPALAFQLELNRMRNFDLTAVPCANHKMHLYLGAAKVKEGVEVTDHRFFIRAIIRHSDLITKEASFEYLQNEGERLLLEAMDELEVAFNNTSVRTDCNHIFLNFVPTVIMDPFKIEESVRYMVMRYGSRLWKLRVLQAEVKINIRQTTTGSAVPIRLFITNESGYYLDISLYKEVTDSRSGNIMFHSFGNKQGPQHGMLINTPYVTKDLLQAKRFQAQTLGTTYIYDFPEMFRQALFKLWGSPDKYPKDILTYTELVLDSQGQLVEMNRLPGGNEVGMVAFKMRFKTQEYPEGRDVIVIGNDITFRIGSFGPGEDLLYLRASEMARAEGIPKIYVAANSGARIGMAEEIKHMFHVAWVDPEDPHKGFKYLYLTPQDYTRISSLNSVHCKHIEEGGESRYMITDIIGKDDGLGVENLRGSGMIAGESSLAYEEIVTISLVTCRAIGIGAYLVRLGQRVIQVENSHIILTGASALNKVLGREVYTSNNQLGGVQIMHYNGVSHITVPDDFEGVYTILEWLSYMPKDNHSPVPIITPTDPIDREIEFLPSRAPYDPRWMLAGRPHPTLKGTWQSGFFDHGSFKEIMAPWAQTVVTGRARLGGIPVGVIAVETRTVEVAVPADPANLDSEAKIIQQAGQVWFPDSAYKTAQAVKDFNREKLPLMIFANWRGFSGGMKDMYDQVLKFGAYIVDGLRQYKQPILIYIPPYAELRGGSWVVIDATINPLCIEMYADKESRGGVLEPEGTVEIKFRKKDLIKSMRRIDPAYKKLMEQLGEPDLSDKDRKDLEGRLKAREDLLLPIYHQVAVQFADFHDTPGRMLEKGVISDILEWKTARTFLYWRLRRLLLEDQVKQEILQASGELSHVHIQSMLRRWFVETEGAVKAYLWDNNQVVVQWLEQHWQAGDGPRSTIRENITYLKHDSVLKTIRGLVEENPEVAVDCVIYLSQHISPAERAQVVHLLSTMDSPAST
The mixture was incubated at room temperature for 15 min.
as §3
(In general: ADP-Glo turns the ADP formed in a reaction into a luminescent signal.)

A short description of data set [1]: Evaluation of compound distribution in rat liver. It is filed as in vivo. The settings on record: male SD rats, single oral 3 mg/kg, 0.25 h after administration; for Kp at 0.25 h: liver/plasma, read-out: Liver/plasma distribution ratio. On the procedure: An acclimation period of 2-3 days was given before the experiments. The rats were fasted for 8-12 h before administration, supplied with water 2 h after administration and foods 4 h after administration.
6 mg of the test compound (based on free base) was weighed and added to 20 mL of ethanol-PEG400-saline (10:30:60). The mixture was vortexed for 2 min, and sonicated for 3 min, and then used to prepare a solution of test sample solution with a concentration of 0.3 mg/mL for oral administration. 100 μL of the test sample solution was volumed to 10 ng/mL with methanol, and a control sample of the same concentration was prepared. The concentrations of the test sample and control sample were detected by HPLC, and the accuracy was calculated.
SD rats were given a single oral administration of 3 mg/kg of test compound at a dose of 10 mL/kg. The rats were bled in femoral artery and ruptured in neck 0.25 h after administration. The liver and blood samples (anticoagulation with heparin sodium) were collected immediately, and placed on ice.
The homogenate was centrifuged (centrifugation conditions: 8000 rpm/min, 5 min, 4° C.). The supernatant was transferred and subjected to cryopreservation. The supernatant was thawed and centrifuged before injection, and the supernatant was collected and subjected to LC-MS/MS for analyzing the content of the compound in the supernatant sample.
The collected whole blood sample was placed on ice and centrifuged within 30 min (centrifugation conditions: 8000 rpm/min, 5 min, 4° C.). 100 μL of the upper layer of plasma was transferred, and precipitated with 300 μL of methanol. The mixture was shaken and centrifuged, and diluted with mobile phase. The supernatant was collected and subjected to LC-MS/MS for analyzing the content of the compound in the supernatant sample.

Data set [2] has as its system Col1A1 gene expression in TGF-β1-induced LX-2 cells. As to the kind of experiment: Inhibition of human hepatic stellate cells LX-2 activation in vitro (Col1A1 gene expression, real-time PCR). It is filed as cell-based. The settings on record: TGFβ1 10 ng/mL, 24 h drug treatment, compound concentration of the tabulated value not stated (30, 10, 3 μM prepared). On the procedure: The compounds of the present disclosure prepared in the above examples and the control compound were respectively formulated into 60 mM with DMSO for use.
DMSO stock solution of the compounds of the examples of the present disclosure and the control compound were sequentially diluted with culture medium to 30 μM, 10 μM, and 3 μM. TGF-β1 was dissolved to […] with 10 mM citric acid buffer in the kit (PeproTech) according to the instructions, ready for use.
LX-2 cells were inoculated into a 6-well culture plate at a density of 2×10^5 cells/mL after cell passage. Each well contained 2 mL DMEM with 10% FBS. The cells were cultured at 37° C. in a 5% CO2 incubator, which was recorded as Day 1. After 24 h (Day 2), the cell confluence reached 70-80%, the old culture medium was discarded, and the serum-free DMEM was used to treat the cells as low serum starvation. The old culture medium was discarded at Day 3, and the culture medium or the culture medium containing different concentrations of the drug was added for continuing culture. There were control group (serum-free DMEM culture medium), TGFβ1 group, TGFβ1+ compound group. The TGFβ1 working concentration was 10 ng/mL. 24 h after the drug treatment (Day 4), the cell medium was discarded and the cells were washed once with precooled 1×PBS and then subjected to total RNA extraction.
2.3.1 Sample pretreatment: 1 mL of TransZOL Up reagent was added to each well of the 6-well plate, and the well plate was placed horizontally for a while to let the lysis buffer evenly spread on the cell surface and lyse the cells. The cells were blown with a pipette to make the cells completely detached. The lysate was transferred to a 2 mL RNase free centrifuge tube and repeatedly blown and sucked until no significant pieces in the lysate.
The extracted RNA was diluted to a concentration of 0.1 μg-0.5 μg (Total RNA ≤1 μg) based on the same mass. The total RNA in the reverse transcription system of each sample in the experiment was about 500 ng.
Two replicates were set for each sample, and the relative expression of the target gene was calculated by the program in the PCR machine.
The threshold of the Real Time PCR result was automatically set by the Real Time PCR detector system. The relative expression of the Col1A1 gene was calculated as follows. ΔCt (Col1A1 in drug treatment group)=Avg. Ct (Col1A1 in drug treatment group)−Avg. Ct (GAPDH in drug treatment group) ΔCt (Col1A1 in TGF group)=Avg. Ct (Col1A1 in TGF group)−Avg. Ct (GAPDH in TGF group) ΔCt (Col1A1 in Control group)=Avg. Ct (Col1A1 in Control group)−Avg. Ct (GAPDH in Control group) ΔΔCt=Average value of ΔCt (Col1A1 in TGF group/drug treatment group)−ΔCt (Col1A1 in Control group)
Formula for calculating the relative expression of Col1A1 gene: RQ=^2−ΔΔCt
Relative quantification results were obtained by automatically analysis of ABI 7500 real-time quantitative PCR machine.

Where [3] appears, read: liver, read-out: Concentration in Liver.
[4] abbreviates: plasma, read-out: Concentration in Plasma.

With `COc1ccccc1C(Cn1c(=O)n(-c2ccc(C(=O)O)cc2)c(=O)c2c(C)c(-c3ncco3)sc21)OC1CCOCC1` (centres unmarked) [Example 24, 4-(1-(2-(2-methoxyphenyl)-2-((tetrahydro-2H-pyran-4-yl)oxy)ethyl)-5-methyl-6-(oxazol-2-yl)-2,4-dioxo-1,4-dihydrothieno[2,3-d]pyrimidin-3(2H)-yl)benzoic Acid], the IC50 (in general, the concentration at which inhibition is half-maximal) stood at 3.06 nM against ACC1 and 5.12 nM at ACC2. Moreover, the concentration at 0.25 h is 3170 ng/g in data set [1] (setting [3]) and 48.5 ng/mL in data set [1] (setting [4]). The Kp at 0.25 h in data set [1] was 65.3.
Turning to `COc1ccccc1[C@H](Cn1c(=O)n([C@H]2C[C@@](C)(C(=O)O)C2)c(=O)c2c(C)c(-c3ncco3)sc21)OC1CCOCC1` [Example 4, (1S,3s)-3-(1-((R)-2-(2-methoxyphenyl)-2-((tetrahydro-2H-pyran-4-yl)oxy)ethyl)-5-methyl-6-(oxazol-2-yl)-2,4-dioxo-1,4-dihydrothieno[2,3-d]pyrimidine-3(2H)-yl)-1-methylcyclobutanecarboxylic Acid], the IC50 on ACC1 came to 0.68 nM; at ACC2, 3.16 nM. Also, the concentration at 0.25 h in data set [1] (setting [3]) came out at 4830 ng/g; in data set [1] (setting [4]), 72.8 ng/mL. For the same molecule, in data set [1], the Kp at 0.25 h amounted to 67.1. In data set [2], the “Inhibition rate (%) of relative expression of the Col1A1 gene” value came to 78.54%.
Take `COc1ccccc1C(Cn1c(=O)n(C2CC(C(=O)O)C2)c(=O)c2c(C)c(-c3ncco3)sc21)OC1CCOCC1` (centres unmarked) [Example 1, 3-(1-(2-(2-methoxyphenyl)-2-((tetrahydro-2H-pyran-4-yl)oxy)ethyl)-5-methyl-6-(oxazol-2-yl)-2,4-dioxo-1,4-dihydrothieno[2,3-d]pyrimidin-3(2H)-yl)cyclobutane-1-carboxylic Acid]: the IC50 on ACC1 is 0.69 nM; at ACC2 it was 5.13 nM. Further, the concentration at 0.25 h in data set [1] (setting [3]) was 4180 ng/g; in data set [1] (setting [4]), 29.1 ng/mL. Further, the Kp at 0.25 h in data set [1] was found to be 144.
As to `COc1ccccc1[C@H](Cn1c(=O)n(-c2ccc(C(=O)O)cc2)c(=O)c2c(C)c(-c3ncco3)sc21)OC1CCOCC1` [Example 24a, (R)-4-(1-(2-(2-methoxyphenyl)-2-((tetrahydro-2H-pyran-4-yl)oxy)ethyl)-5-methyl-6-(oxazol-2-yl)-2,4-dioxo-1,4-dihydrothieno[2,3-d]pyrimidin-3(2H)-yl)benzoic Acid], the “Inhibition rate (%) of relative expression of the Col1A1 gene” value in data set [2] was 24.50%.
For the molecule `COc1ccccc1[C@H](Cn1c(=O)n(-c2cccc(C3(C(=O)O)CC3)c2)c(=O)c2c(C)c(-c3ncco3)sc21)OC1CCOCC1` [Example 56], the “Inhibition rate (%) of relative expression of the Col1A1 gene” value in data set [2] worked out at 105.01%.
On to `COc1ccccc1C(Cn1c(=O)n(-c2cccc(C(=O)O)c2)c(=O)c2c(C)c(-c3ncco3)sc21)OC1CCOCC1` (centres unmarked) [Example 25, 3-(1-(2-(2-methoxyphenyl)-2-((tetrahydro-2H-pyran-4-yl)oxy)ethyl)-5-methyl-6-(oxazol-2-yl)-2,4-dioxo-1,4-dihydrothieno[2,3-d]pyrimidin-3(2H)-yl)benzoic Acid], for which the 50% inhibitory concentration (IC50) at ACC1 stood at 1.57 nM; against ACC2, 7.57 nM. Moreover, the concentration at 0.25 h in data set [1] (setting [3]) turned out to be 3200 ng/g; in data set [1] (setting [4]), 21.2 ng/mL. In data set [1], the Kp at 0.25 h is 151. Also, the “Inhibition rate (%) of relative expression of the Col1A1 gene” value in data set [2] is 62.94%.
Regarding `COc1ccccc1C(Cn1c(=O)n(C2CN(C(C)=O)C2)c(=O)c2c(C)c(-c3ncco3)sc21)OC1CCOCC1` (centres unmarked) [Example 7], the IC50 at ACC1 came out at 2.23 nM; against ACC2, 12.4 nM. In addition, the concentration at 0.25 h in data set [1] (setting [3]) came out at 1460 ng/g; in data set [1] (setting [4]), 19.3 ng/mL. In data set [1], the Kp at 0.25 h worked out at 75.5.

Source of the values: patent US11186587B2, “Compound as ACC inhibitor and use thereof” (NANJING SANHOME PHARMACEUTICAL CO., LTD., priority 2017, dated 2021).
